# Laboratory results from patent US5690904A, “Diagnostic radiopharmaceutical compounds (That)” (priority 1995, dated 1997).
# How the values were obtained:
# [1] = technetium complex; cited from earlier work
# [2] = technetium complex, monkey; cited from earlier work
# [3] = Biodistribution of 99mTc labelled complexes in rats (Tc brain bioassay, Example 64, Table I); assay type: in vivo, Female Sprague-Dawley rats; conditions: rat, i.v. tail vein
# Method: Distribution of the ^99m Tc labelled compounds was evaluated in rats. Female Sprague-Dawley rats weighing 140 to 220 g (average 170 g) were anaesthetised with sodium pentobarbital and were injected in a tail vein with 0.05 to 10mCi of the ^99m Tc labelled complex in a volume of 0.2 to 0.5 ml. At least two rats were injected for each time point.
# The animals were sacrificed at 5 and 30 minutes post injection and selected organs were removed; the tails were discarded to avoid interference from the injection site. The radioactivity in each organ was measured at a standard geometry with a […] sodium iodide scintillation counter adjusted for the 140 KeV emission of ^99m Tc. The organs were also weighed to one hundredth of a gram and the activity was calculated as a percent of administered dose per gram. The important determinations are the amount of activity in the brain and the brain:blood ratio.
# [4] = Electrophoresis of 99mTc complexes (charge); assay type: physicochemical
# From the text: After labelling, and if required, the resultant ^99m Tc chelate complexes can be purified by passing through a C-18 Sep Pak column.
# [5] = 0.1M NaH2PO4, pH 6.8, 250 volts, 25 min
# [6] = 0.1M NaH2PO4, pH 6.8, 200 volts, 30 min
# [7] = 0.05M NaH2PO4, pH 4.5, 300 volts, 30 min
SMILES,Brain % dose ([3]; 5 min post injection),Brain:blood ([3]; 5 min post injection),Heart % dose ([3]; 5 min post injection),Heart:blood ([3]; 5 min post injection),Brain % dose ([3]; 30 min post injection),Brain:blood ([3]; 30 min post injection),Heart % dose ([3]; 30 min post injection),Heart:blood ([3]; 30 min post injection),further results
CC(C)(S)CNCCNCC(C)(C)S [BAT],,,,,,,,,brain uptake / crossing of blood-brain barrier [1]: can cross the blood-brain barrier (BBB); retention of brain activity [1]: fails to show retention
CCOC(=O)[C@H](CS)NCCN[C@@H](CS)C(=O)OCC [ECD],,,,,,,,,brain retention [2]: retention; brain uptake [2]: good
C[SH]1C(C)(C)C(=O)[N]2CC[N]3c4ccccc4[S][Tc]231=[O] (stereo not shown) [Example T711],2.33 % dose,4.24,0.88 % dose,3.38,0.47 % dose,1.54,0.23 % dose,1.51,"Electrophoresis (charge) [4, 5]: neutral"
"C[SH]1c2ccccc2[N]2CC[N]3C(=O)C(C)(C)[S][Tc]321=[O] (stereo not shown) [Example T712, ^99m Tc complex of N[2-(((methyl-2-mercapto)propionyl)amino)ethyl]-2-methylthio aniline]",1.69 % dose,1.04,0.61 % dose,1.07,1.73 % dose,1.13,0.53 % dose,0.74,"Electrophoresis (charge) ([4]; 0.05M NaH2PO4, pH 4.5, 3000 volts, 30 min): neutral"
"CCC[SH]1C(C)(C)C(=O)[N]2CC[N]3c4ccccc4[S][Tc]231=[O] (stereo not shown) [Example T713, ^99m Tc complex of N[2-(((2-methyl-2-propylthio)propionyl)amino)ethyl]-2-amino-thiophenol]",1.55 % dose,4.34,0.59 % dose,3.68,0.46 % dose,1.83,0.19 % dose,1.84,"Electrophoresis (charge) [4, 5]: neutral"
"CCCC[SH]1C(C)(C)C(=O)[N]2CC[N]3c4ccccc4[S][Tc]231=[O] (stereo not shown) [Example T714, ^99m Tc complex of N[2-(((2-methyl-2-butylthio)propionyl)amino)ethyl]-2-amino-thiophenol]",1.43 % dose,3.11,0.82 % dose,3.67,0.50 % dose,1.66,0.27 % dose,1.79,
"CC[SH]1C(C)(C)C(=O)[N]2CC[N]3c4ccccc4[S][Tc]231=[O] (stereo not shown) [Example T715, ^99m Tc complex of N[2-(((2-methyl-2-ethylthio)propionyl)amino)ethyl]-2-amino-thioplhenol]",2.55 % dose,5.19,0.84 % dose,3.73,0.51 % dose,1.36,0.23 % dose,1.40,
"CCC[SH]1c2ccccc2[N]2CC[N]3C(=O)C(C)(C)[S][Tc]321=[O] (stereo not shown) [Example T717, ^99m Tc N[2-(((2-methyl-2-mercapto)propionyl)amino)ethyl]-2-propylthioaniline]",1.27 % dose,1.21,0.98 % dose,1.88,1.24 % dose,1.23,0.48 % dose,1.00,"Electrophoresis (charge) [4, 6]: neutral"
"C=CC[SH]1C(C)(C)C(=O)[N]2CC[N]3c4ccccc4[S][Tc]231=[O] (stereo not shown) [Example T719, ^99m Tc complex of N[2-(((2-methyl-2-allylthio)propionyl)amino)ethyl]-2-(4-methoxybenzylthio)aniline]",1.86 % dose,,0.78 % dose,,0.48 % dose,,0.40 % dose,,"Brain:blood ([3]; 5 min post injection, 5 min): 1.32; Heart:blood ([3]; 5 min post injection, 5 min): 1.36; Brain:blood ([3]; 30 min post injection, 30 min): 0.26; Heart:blood ([3]; 30 min post injection, 30 min): 0.55"
"C=CC[SH]1C(C)(C)C(=O)[N]2CC[N]3c4ccccc4[S][Tc]231=[O] (stereo not shown) [Example T721, ^99m Tc complex of N[2-(((-methyl-2-allylthio)propionyl)amino)ethyl]-2-aminothiopenol]",1.82 % dose,,0.75 % dose,,0.30 % dose,,0.36 % dose,,"Brain:blood ([3]; 5 min post injection, 5 min): 1.23; Heart:blood ([3]; 5 min post injection, 5 min): 1.16; Brain:blood ([3]; 30 min post injection, 30 min): 0.21; Heart:blood ([3]; 30 min post injection, 30 min): 0.49; Electrophoresis (charge) [4, 6]: neutral"
"C#CC[SH]1C(C)(C)C(=O)[N]2CC[N]3c4ccccc4[S][Tc]231=[O] (stereo not shown) [Example T722, ^99m Tc complex of N[2-(((2-methyl-2-(2-propynylthio))propionyl)amino)ethyl]-2-(4-methoxybenzylthio)aniline]",1.58 % dose,0.57,0.74 % dose,0.67,0.68 % dose,0.31,0.48 % dose,0.52,
"CC1(C)C(=O)[N]2CC[N]3c4ccccc4[S][Tc]23(=[O])[SH]1CCO (stereo not shown) [Example T726, ^99m Tc complex of N[2-(((2-methyl-2-(2-hydroxyethylthio))propionyl)amino)ethyl]-2-(4-methoxybenzylthio) aniline]",1.11 % dose,1.82,0.73 % dose,3.22,0.32 % dose,0.93,0.28 % dose,2.08,"Electrophoresis (charge) [4, 6]: neutral"
"COC(=O)C[SH]1C(C)(C)C(=O)[N]2CC[N]3c4ccccc4[S][Tc]231=[O] (stereo not shown) [Example T727, ^99m Tc complex of N[2-(((2-methyl-2-(methoxycarbonylmethylenethio))propionyl)amino)ethyl]-2-(4-methoxybenzylthio)aniline]",0.09 % dose,0.09,0.45 % dose,1.26,0.07 % dose,0.06,0.18 % dose,0.42,"Electrophoresis (charge) ([4]; 0.05M NaH2PO4, pH 4.5, 300 volts, 35 min): neutral"
"CC1(C)C(=O)[N]2CC[N]3c4ccccc4[S][Tc]23(=[O])[SH]1CCCN (stereo not shown) [Example T728, ^99m Tc complex of N[2-(((2-methyl-2-(3-aminopropylthio))propionyl)amino)ethyl]-2-(4-methoxybenzylthio) aniline]",0.03 % dose,0.04,1.68 % dose,4.36,0.03 % dose,0.05,0.74 % dose,2.11,
"C[SH]1c2ccccc2[N]2CC(=O)[N]3CC(C)(C)[S][Tc]321=[O] (stereo not shown) [Example T729, ^99m Tc complex of N[2-oxo-2(N^1 ((2-methyl-2-mercapto)propyl)amino)ethyl]-2-methylthioaniline]",0.87 % dose,0.19,0.70 % dose,0.34,0.21 % dose,0.08,0.28 % dose,0.36,"Electrophoresis (charge) [4, 7]: neutral"
"CC1(C)C(=O)[N]2CC[N]3c4ccccc4[S][Tc]23(=[O])[SH]1CCCl (stereo not shown) [Example T730, ^99m Tc complex of N[2-(((2-methyl-2-(2-chloroethylthio))propionyl)amino)ethyl]-2-(4-methoxybenzylthio)aniline]",2.45 % dose,6.1,0.71 % dose,3.97,0.73 % dose,1.8,0.29 % dose,1.53,"Electrophoresis (charge) [4, 7]: neutral"
"CC1(C)C(=O)[N]2CC[N]3c4ccccc4[S][Tc]23(=[O])[SH]1CCC#N (stereo not shown) [Example T731, ^99m Tc complex of N[2-(((2-methyl-2-(2-cyanoethylthio))propionyl)amino)ethyl]-2-(4-methoxybenzylthio)aniline]",1.49 % dose,0.42,1.01 % dose,0.68,0.60 % dose,0.21,0.58 % dose,0.42,"Electrophoresis (charge) [4, 7]: neutral"
CC(C)(S)CNCc1ccccc1NCC(C)(C)S [U-BAT],,,,,,,,,brain uptake / crossing of blood-brain barrier [1]: exhibit brain uptake; retention of brain activity [1]: no retention
